Patent publication US9775890B2, “Factor Xa inhibitor used with liver-derived progenitor cells” (UNIVERSITÉ CATHOLIQUE DE LOUVAIN, priority 2012, dated 2017)
Counter-ions that a name gives are not always drawn. Like-named read-outs stand apart in the source and are kept apart here.

Assays:
cells with PCA = assay: Analogous thromboelastometry experiments with different direct factor Xa inhibitors plus direct thrombin inhibitor; format: cell-based; settings: present tense
Protocol: (§1) Measurements were performed on a ROTEM® delta analyser (Pentapharm, Munich, Germany). ROTEM® assesses the kinetics and quality of clot formation and clot lysis in real-time. The clotting time (CT) is defined as the period of time from the start of the analysis until the start of clot formation, normally until the 2 mm amplitude is reached. The clot formation time is defined as the period until the 20 mm amplitude is reached. The alpha angle is defined as the angle between the centre line and a tangent to the curve through the 2 mm amplitude point, which is the end of the CT. The maximum amplitude of the curve is defined as the maximum clot firmness. The maximum of lysis represents the maximum fibrinolysis detected during the measurement. We focused on CT.
(§2) Briefly, after a short rest period, 300 μl of whole blood was pipetted into a cup pre-warmed at 37° C. Suspended cells were subsequently added to whole blood (5×10exp5 cells if no specification). Twenty μl of trigger reagent containing tissue factor (TF) (Innovin, Siemens, Marburg, Germany. Final dilution 1:17000/0.35 pM) diluted in Owren buffer (Siemens, Marburg, Germany) was then added to the cell-blood mixture followed by the necessary addition of 20 μl of 0.2 M CaCl2. After calcium addition, measurements started automatically. The procoagulant activity (PCA) of cells was also determined without addition of Innovin.
For modulation of PCA assays, cells were suspended in albumin 5% with or without non-fractionated heparin (Heparin Leo®, Leo). […] Dose extrapolation was based on circulating blood volume according to weight (70 ml/kg).

hALPCs = assay: Thromboelastometry (ROTEM) clotting time: modulation of procoagulant activity (PCA) of hALPCs in whole blood; format: cell-based, human; settings: for Control of hALPCs PCA by thrombin inhibitor, increased dose (2× or 5×): FIGS. 14 and 15, dose 2× or 5×; for Clotting time (CT) of whole blood with hALPCs in presence of anticoagulant drug: ROTEM, 300 μl citrated whole blood, 5×10exp5 hALPCs, added TF, heparin 10 U/mL in cell suspension, hirudin 5.7 μg/ml
Protocol: as §1
as §2, with “Innovin. To ascertain the role of TF in this coagulation model, cells were pre-incubated at room temperature for 10 minutes with either 0.2 mg/mL mAb anti-human TF IgG1 (American Diagnostica) or 0.2 mg/mL mAb mouse IgG1 (clone11711.11; RnD Systems, Abingdon, United Kingdom) before extensive washing in albumin 5% and thromboelastometry assay.” for “Innovin.”
For modulation of PCA assays, cells were suspended in albumin 5% with or without non-fractionated heparin (Heparin Leo®, Leo). The following were then added to blood or plasma: rivaroxaban (Xarelto®, Bayer Schering) at a concentration of 1 μg/ml following published data (Samama et al. (2010), Thromb Haemost, 103(4):815-825), hirudin (Refludan®, Celgene Europe Limited) at a concentration of 5.7 μg/ml (clinical dose extrapolation 0.4 mg/kg), bivalirudin (Angiox®, The Medicines Company) at a concentration of 10.7 μg/ml (clinical dose extrapolation 0.75 mg/kg). Dose extrapolation was based on circulating blood volume according to weight (70 ml/kg).

hepatocytes = assay: Thromboelastometry (ROTEM): modulation of PCA of hepatocytes in whole blood; format: cell-based, human
Protocol: as §1
as §2, with “Innovin. […]” for “Innovin.”

citrated whole blood = assay: Thromboelastometry (ROTEM) of control blood in absence of cells with anticoagulant drug; parameters: species or system human; settings: no cells
Protocol: as §1
as §2, with “Innovin. […]” for “Innovin.”

Row | Molecule | Modulation of PCA of cells by concomitant use of the direct factor Xa inhibitor with a direct thrombin inhibitor (hirudin or bivalirudin) (cells with PCA) | other results
1 | CC(=N)N1CCC(Oc2ccc(N(Cc3ccc4ccc(C(=N)N)cc4c3)S(=O)(=O)CC(=O)O)cc2)CC1 [YM-60828] | able to modulate PCA | 
2 | hirudin |  | Control of hALPCs PCA by thrombin inhibitor, increased dose (2× or 5×) (hALPCs; ROTEM whole blood): only a partial control; Clotting time (CT) of whole blood with hALPCs in presence of anticoagulant drug (hALPCs; bivalirudin 10.7 μg/ml): 256.3 ± 11.8 s; Control of hepatocytes PCA (in words) (hepatocytes): controlled; Coagulation of blood in absence of cells (in words) (citrated whole blood; thromboelastometry stopped after 1800 sec): no measurable coagulation was observed
3 | CN1CCC(N2CCN(C(=O)[C@H](NC(=O)c3ccc4cc[nH]c4c3)c3ccccc3)CC2)CC1 [LY517717] | able to modulate PCA | 
4 | CC(=N)N1CC[C@H](Oc2ccc([C@H](Cc3ccc4ccc(C(=N)N)cc4c3)C(=O)O)cc2)C1 [DX9065a] | able to modulate PCA | 
5 | O=C([C@H](O)CS(=O)(=O)c1ccc2cc(Cl)ccc2c1)N1CCC(N2CCCNC2=O)CC1 [letaxaban] | able to modulate PCA | 
6 | antistasin | able to modulate PCA | 
7 | O=C(NC[C@H]1CN(c2ccc(N3CCOCC3=O)cc2)C(=O)O1)c1ccc(Cl)s1 [rivaroxaban, (S)-5-chloro-N-{[2-oxo-3-[4-(3-oxomorpholin-4-yl)phenyl]oxazolidin-5-yl]methyl}thiophene-2-carboxamide] |  | Modulation of hALPCs PCA (in words) (hALPCs; ROTEM whole blood, rivaroxaban 1 μg/ml, bivalirudin 10.7 μg/ml, heparin 10 U/mL): ineffective
8 | O=C1CN(S(=O)(=O)/C=C/c2ccc(Cl)s2)CCN1Cc1cc2cnccc2[nH]1 [RPR-209685] | able to modulate PCA | 
9 | C[C@@H](C(=O)N1CCOCC1)N1CC[C@H](NS(=O)(=O)/C=C/c2ccc(Cl)s2)C1=O [GW813893] | able to modulate PCA | 
10 | CN(C)Cc1nccn1-c1ccc(NC(=O)c2cc(C(F)(F)F)nn2-c2ccc3onc(N)c3c2)c(F)c1 [razaxaban] | able to modulate PCA | 
11 | CC(=N)N1CCC(c2ccc(NC(=O)CN(Cc3cccc(OCC(=O)O)c3)c3cccc(C(=N)N)c3)cc2)CC1 [KFA-144] | able to modulate PCA | 
12 | COc1ccc(NC(=O)c2ccc(C(=N)N(C)C)cc2)c(C(=O)Nc2ccc(Cl)cn2)c1 [betrixaban, N-(5-chloropyridin-2-yl)-2-([4-(N,N-dimethylcarbamimidoyl)benzoyl]amino)-5-methoxybenzamide] | able to modulate PCA | 
13 | COc1ccccc1N1CCN(C(=O)CNC(=O)C(Nc2cccc(C(=N)N)c2)c2ccccc2O[C@@H]2O[C@H](CO)[C@@H](O)[C@H](O)[C@H]2O)CC1 (stereo partly shown) [MCM-09] | able to modulate PCA | 
14 | CO[C@H]1O[C@H](COS(=O)(=O)O)[C@@H](O[C@@H]2O[C@@H](C(=O)O)[C@@H](O[C@H]3O[C@H](COS(=O)(=O)O)[C@@H](O[C@@H]4O[C@H](C(=O)O)[C@@H](O[C@H]5O[C@H](COS(=O)(=O)O)[C@@H](O)[C@H](O)[C@H]5NS(=O)(=O)O)[C@H](O)[C@H]4O)[C@H](OS(=O)(=O)O)[C@H]3NS(=O)(=O)O)[C@H](O)[C@H]2OS(=O)(=O)O)[C@H](O)[C@H]1NS(=O)(=O)O [fondaparinux, 2-deoxy-6-O-sulfo-2-(sulfoamino)-α-D-glucopyranosyl-(1→4)-O-β-D-glucopyranuronosyl-(1→4)-O-2-deoxy-3,6-di-O-sulfo-2-(sulfoamino)-α-D-glucopyranosyl-(1→4)-O-2-O-sulfo-α-L-idopyranouronosyl-(1→4)-O-methyl-2-deoxy-6-O-sulfo-2-(sulfoamino)-α-D-glucopyranoside, decasodium salt] |  | Clotting time (CT) of whole blood with hALPCs in presence of anticoagulant drug (hALPCs; bivalirudin 10.7 μg/ml): 209.7 ± 149.7 s
15 | N=C(N)N1CCc2ccc(OCC3(C(=O)O)CCN(c4ccncc4)CC3)cc2C1 [JTV-803] | able to modulate PCA | 
16 | CO[C@H]1C[C@@H](C(=O)Nc2ccc(-n3ccccc3=O)cc2F)N(C(=O)Nc2ccc(Cl)cc2)C1 [eribaxaban] | able to modulate PCA | 
17 | COc1ccc(C(=O)Nc2cccc(O)c2NC(=O)c2ccc(N3CCCN(C)CC3)cc2)cc1 [darexaban] | able to modulate PCA | 
18 | bivalirudin |  | Control of hALPCs PCA by thrombin inhibitor, increased dose (2× or 5×) (hALPCs; ROTEM whole blood): only a partial control; Clotting time (CT) of whole blood with hALPCs in presence of anticoagulant drug (hALPCs; bivalirudin 10.7 μg/ml): 380.8 ± 114.7 s; Control of hepatocytes PCA (in words) (hepatocytes; ROTEM whole blood, FIG. 6D): controlled; CT of control blood (in absence of cells) (citrated whole blood; bivalirudin 10.7 μg/ml, unit not printed at the place (other CT in sec)): 1075.0±107.2
19 | COc1ccc(-n2nc(C(N)=O)c3c2C(=O)N(c2ccc(N4CCCCC4=O)cc2)CC3)cc1 [apixaban, 1-(4-methoxyphenyl)-7-oxo-6-[4-(2-oxopiperidin-1-yl)phenyl]-4,5-dihydropyrazolo[5,4-c]pyridine-3-carboxamide] | able to modulate PCA | 
